Test results reported in patent US12102644B2, “Compounds and methods of promoting myelination” (Case Western Reserve University, priority 2019, dated 2024).
Entries after “also recorded” stand apart in the source; their conditions may differ. Blank lines part the entries; values can stand above or below the molecule they belong to.

Key:
[1] = tested on: mouse epiblast stem cell-derived OPCs; assay: In vitro OPC differentiation assay (percentage of MBP+ oligodendrocytes, high-content imaging); type: cell-based; conditions: for formation of MBP+ oligodendrocytes from OPCs / formation of MBP+ oligodendrocytes in combination with ketoconazole: 72 h; for formation of MBP+ oligodendrocytes from OPCs: differentiation-permissive conditions; for formation of MBP+ oligodendrocytes in combination with ketoconazole: co-treatment with ketoconazole 2.5 μM
Protocol: To rigorously assess effects of small molecule and genetic treatments on OPCs, all treatments were assayed in two batches of epiblast stem cell-derived OPCs, and key results were confirmed using mouse primary OPCs. OPCs were generated from two separate EpiSC lines, EpiSC5 (giving rise to OPC-5 OPCs) and 12901 (giving rise to OPC-1 OPCs). EpiSC-derived OPCs were obtained using in vitro differentiation protocols and culture conditions described previously. To ensure uniformity throughout all in vitro screening experiments, EpiSC-derived OPCs were sorted to purity by fluorescence activated cell sorting at passage five with conjugated CD 140a-APC (eBioscience, 17-1401; 1:80) and NG2-AF488 (Millipore, AB[…]; 1:100) antibodies. Sorted batches of OPCs were expanded and frozen down in aliquots. OPCs were thawed into growth conditions for one passage before use in further assays. Cultures were regularly tested and shown to be mycoplasma free. EpiSC-derived OPCs were grown and expanded in poly-ornithine (PO) and laminin-coated flasks with growth medium (DMEM/F12 supplemented with N2-MAX (R&D Systems), B-27 (ThermoFisher), GlutaMax (Gibco), FGF2 ([…], R&D systems, 233-FB-025) and PDGF-AA ([…], R&D systems, 233-AA-050) before harvesting for plating. The cells were seeded onto poly-D-[…]-well CellCarrier plates (PerkinElmer) coated with laminin (Sigma, L2020; 15 μg/ml) using multi-channel pipet. For the experiment, 800,000 cells/mL stock in differentiation medium (DMEM/F12 supplemented with N2-MAX and B-27) was prepared and stored on ice for 2 h. Then, 40,000 cells were seeded per well in differentiation medium and allowed to attach for 30 min before addition of drug. For dose-response testing of all molecules except sterols, a 1000× compound stock in dimethyl sulphoxide (DMSO) was added to assay plates with 0.1 μL solid pin multi-blot replicators (V & P Scientific; VP 409), resulting in a final primary screening concentration of 1×. Sterols were added to cells as an ethanol solution (0.2% final ethanol concentration). Positive control wells (ketoconazole, 2.5 μM) and DMSO vehicle controls were included in each assay plate. Cells were incubated under standard conditions (37° C., 5% CO2) for 3 days and fixed with 4% paraformaldehyde (PFA) in phosphate buffered saline (PBS) for 20 min. Fixed plates were washed with PBS (200 μL per well) twice, permeabilized with 0.1% Triton X-100 and blocked with 10% donkey serum (v/v) in PBS for 40 min. Then, cells were labelled with MBP antibodies (Abcam, ab7349; 1:200) for 16 h at 4° C. followed by detection with Alexa Fluor conjugated secondary antibodies (1:500) for 45 min. Nuclei were visualized by DAPI staining (Sigma; 1 μg/ml). During washing steps, PBS was added using a multi-channel pipet and aspiration was performed using Biotek EL406 washer dispenser (Biotek) equipped with a 96-well aspiration manifold. Plates were imaged on the Operetta High Content Imaging and Analysis system (PerkinElmer) and a set of 6 fields captured from each well resulting in an average of 1200 cells being scored per well. Analysis (PerkinElmer Harmony and Columbus software) began by identifying intact nuclei stained by DAPI; that is, those traced nuclei that were larger than 300 μm^2 in surface area. Each traced nucleus region was then expanded by 50% and cross-referenced with the […] (MBP) stain to identify oligodendrocyte nuclei, and from this the percentage of oligodendrocytes was calculated. In some experiments, the total process length of MBP^+ oligodendrocytes was calculated as previously described.

[2] = tested on: estrogen receptor; conditions: cited from earlier work
[3] = tested on: sterol levels in OPCs (cholesterol biosynthesis pathway); assay: GC/MS-based sterol profiling in OPCs; type: cell-based, mouse; conditions: 24 h treatment
[4] = tested on: NR2C2; assay: NR2C2-mediated NGFI-A promoter luciferase reporter; type: cell-based; conditions: 2,2-dimethylzymosterol 5 μM
Protocol: (§1) FIGS. 6(A-D) illustrate images and graphs showing the effect of 8,9-unsaturated sterols on nuclear hormone receptors and SREBP2 activity: a) Luciferase reporter assays were used to assess if 2,2-Dimethylzymosterol (5 μM), Ketoconazole (2.5 μM), and TASIN-1 (250 nM) modulate human ERα, GR, LXRβ, NFkB, NRF2, PGR, PPARδ, PPARγ, RARα, RARγ, RXRα, RXRβ, TRα, TRβ and VDR transcriptional activity in agonist mode and ERRα, RORα and RORγ in inverse-agonist mode. […]

[5] = tested on: human ERα, GR, LXRβ, NFkB, NRF2, PGR, PPARδ, PPARγ, RARα, RARγ, RXRα, RXRβ, TRα, TRβ, VDR, ERRα, RORα and RORγ; assay: Luciferase reporter assays for 18 nuclear hormone receptors; type: cell-based; conditions: 2,2-Dimethylzymosterol 5 μM, Ketoconazole 2.5 μM, TASIN-1 250 nM
Protocol: FIGS. 6(A-D) illustrate images and graphs showing the effect of 8,9-unsaturated sterols on nuclear hormone receptors and SREBP2 activity: a) Luciferase reporter assays were used to assess if 2,2-Dimethylzymosterol (5 μM), Ketoconazole (2.5 μM), and TASIN-1 (250 nM) modulate human ERα, GR, LXRβ, NFkB, NRF2, PGR, PPARδ, PPARγ, RARα, RARγ, RXRα, RXRβ, TRα, TRβ and VDR transcriptional activity in agonist mode and ERRα, RORα and RORγ in inverse-agonist mode. Measurements are shown as percentage of positive control, n=2 replicates per condition and n=3 replicates per condition for the controls. b) Effects of sterols (T-MAS 5 μM, FF-MAS 10 μM) and small molecules (Ketoconazole 2.5 μM, TASIN-1 100 nM) on the NR2F1-mediated activation of a NGFI-A promoter driven luciferase reporter in comparison to cells containing the reporter only (Ctrl.) or untreated. n=2 replicates per condition, with triplicate measurements per replicate. c) Effects of 2,2-dimethylzymosterol (5 μM) on the NR2C2 mediated activation of a NGFI-A promoter driven luciferase reporter in comparison to cells infected with reporter only, untreated, or treated with a previously reported positive control (all-trans retinoic acid, ATRA, 5 μM). n=2 replicates per condition, with triplicate measurements per replicate. d) LSS, DHCR7, LDLR mRNA levels measured by RT-qPCR following 24 h treatment with DMSO, Mevastatin (2.5 μM), Ro 48-8071 (500 nM), Ketoconazole (2.5 μM), TASIN-1 (100 nM), or Amorolfine (100 nM). n=2 replicates, with triplicate qPCR measurements per replicate. Experiments in panels b-d are representative of two indpedendent experiments.

[6] = tested on: NR2F1; assay: NR2F1-mediated NGFI-A promoter luciferase reporter; type: cell-based; conditions: Ketoconazole 2.5 μM, TASIN-1 100 nM
Protocol: as §1

[7] = tested on: EpiSC-derived OPCs on microfibers; assay: Oligodendrocyte formation on electrospun microfibers; type: cell-based, mouse; conditions: 14 days
Protocol: A 12-well plate containing Mimetex aligned scaffold (microfiber plate, AMSBIO, AMS.TECL-006-1X, Electrospun poly-L-lactide Scaffold, […] cell crown inserts) was prepared as previously described. Briefly, inserts were sterilized with 70% ethanol and washed with PBS before being coated with polyornithine and laminin. After laminin coating, 100,000 cells/mL of EpiSC-derived OPCs were plated in differentiation medium. After 24 h the media was replaced with fresh media containing small molecule treatments. Every 48 h the media was replaced with fresh compound containing media for a total of 14 days. Plates were fixed with 4% PFA, permeabilized with 0.1% Triton X-100, and blocked with 10% donkey serum (v/v) in PBS for 60 min. Plates were stained for MBP (Abcam, ab7349; 1:100) and DAPI staining (Sigma; 5 μg/ml). After staining, the inserts were moved into new 12-well plate and covered with 2 mL of PBS before imaging in Operetta high content Imaging and analysis system. Plates were imaged on the Operetta High Content Imaging and Analysis system (PerkinElmer) and a set of 8 fields captured from each well resulting in an average of 45,000 cells being scored per well. Analysis (PerkinElmer Harmony and Columbus software) identified intact nuclei stained by DAPI and calculated the MBP signal intensity per cell per well. Microfiber insert tracking images were taken using a Leica DMi8 with a 20× Dry/NA 0.40 objective. Microfiber plate inserts were mounted using Flouromount-G (SouthernBiotech) and allowed to partially harden before coverslips were added and the insert ring was removed. Confocal images were obtained on a Leica SP8 confocal scanning microscope, with 40× oil/NA 1.30 objective. Confocal stacks of 0.336 μm z-steps were taken at 1024×1024. Each fluorophore was excited sequentially and all contrast and brightness changes were applied consistently between images.

[8] = target: T1, EBP (Mus musculus, UniProt P70245); assay: EBP enzymatic assay (GC/MS); type: biochemical; conditions: small molecules 10 μM, zymostenol 25 μM, 2 h
T1 construct: active EBP was obtained from mouse microsomes; from tissue
T1 sequence (P70245 1-230): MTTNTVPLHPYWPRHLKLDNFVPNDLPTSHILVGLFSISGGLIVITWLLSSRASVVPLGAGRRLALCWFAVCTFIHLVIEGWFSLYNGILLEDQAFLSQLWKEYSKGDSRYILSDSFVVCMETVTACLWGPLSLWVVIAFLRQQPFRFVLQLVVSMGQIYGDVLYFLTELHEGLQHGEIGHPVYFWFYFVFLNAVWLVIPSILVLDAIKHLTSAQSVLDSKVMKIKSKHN

[9] = target: T2, rat CYP51 (Rattus norvegicus, UniProt Q64654); assay: biochemical
T2 sequence (Q64654 1-503): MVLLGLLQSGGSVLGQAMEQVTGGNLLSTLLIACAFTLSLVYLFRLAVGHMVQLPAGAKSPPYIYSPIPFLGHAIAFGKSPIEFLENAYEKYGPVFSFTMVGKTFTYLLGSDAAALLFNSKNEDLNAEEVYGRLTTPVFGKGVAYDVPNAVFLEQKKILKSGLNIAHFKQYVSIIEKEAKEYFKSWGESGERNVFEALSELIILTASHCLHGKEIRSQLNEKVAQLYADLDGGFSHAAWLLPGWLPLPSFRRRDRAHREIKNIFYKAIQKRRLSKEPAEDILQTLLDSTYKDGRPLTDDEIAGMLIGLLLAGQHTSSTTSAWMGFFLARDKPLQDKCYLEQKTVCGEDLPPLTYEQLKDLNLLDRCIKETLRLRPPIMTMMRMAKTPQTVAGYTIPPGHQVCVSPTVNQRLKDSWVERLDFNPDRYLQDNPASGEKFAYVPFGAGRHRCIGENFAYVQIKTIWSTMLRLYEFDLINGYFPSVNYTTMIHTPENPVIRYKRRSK

[10] = tested on: LPC-lesioned spinal cord; conditions: previously established by the inventors; cited from earlier work
[11] = tested on: human induced pluripotent stem cell-derived cortical spheroids; assay: Sterol profiling in human iPSC-derived cortical spheroids; type: cell-based
[12] = tested on: LPC-lesioned spinal cord; assay: LPC focal demyelination of spinal cord, remyelination histology; type: in vivo, mouse; conditions: ifenprodil 10 mg per kg or tamoxifen 2 mg per kg, daily i.p., 8 days from day 4 after lesion

Molecule: CC(C)=CCC[C@@H](C)[C@H]1CC[C@H]2C3=C(CC[C@]12C)[C@@]1(C)CC(C)(C)[C@H](O)C[C@@H]1CC3 [2,2-dimethylzymosterol]
formation of MBP+ oligodendrocytes from OPCs [1]: maximally potent enhancers of oligodendrocyte formation among the 8,9-unsaturated sterols tested | EC50 ([1]; OPC-5 and OPC-1, 72 h, read-out: EC50 for enhancing oligodendrocyte formation): 1000 to 2000 nM | formation of MBP+ oligodendrocytes in combination with ketoconazole [1]: no further benefit over ketoconazole alone | NR2C2-mediated reporter activation [4]: ineffective | agonist activity in NHR reporter assays [5]: no molecule showed significant agonist activity in any assay

Molecule: CCC(C)(C)c1ccc(CC(C)CN2C[C@@H](C)O[C@@H](C)C2)cc1 (stereo partly shown) [amorolfine, Amorolfine]
MBP+ oligodendrocyte tracking along and wrapping of microfibers [7]: significantly enhanced MBP+ oligodendrocyte tracking along and wrapping of the microfibers | formation of MBP+ oligodendrocytes from OPCs [1]: enhanced formation of MBP^+ oligodendrocytes

Molecule: CC/C(=C(\c1ccccc1)c1ccc(OCCN(C)C)cc1)c1ccccc1 [tamoxifen, Tamoxifen]
remyelination of LPC lesion [12]: remyelination was widespread throughout the lesion | formation of MBP+ oligodendrocytes from OPCs [1]: enhance the formation of oligodendrocytes with comparable potency | formation of MBP+ oligodendrocytes in combination with ketoconazole [1]: did not enhance differentiation above levels seen for ketoconazole alone | inhibition of EBP enzymatic activity [8]: clear inhibition | accumulation of sterol intermediates in OPCs (enzyme inhibition in OPCs, e.g. EBP) [3]: induced accumulation of zymostenol and zymosterol and decreased basal sterol levels; also recorded: inhibit EBP in OPCs

Continued, in another order:

accumulation of sterol intermediates in OPCs (enzyme inhibition in OPCs, e.g. EBP) [3]: inhibit EBP in OPCs
Molecule: 4-hydroxytamoxifen
formation of MBP+ oligodendrocytes from OPCs [1]: enhance the formation of oligodendrocytes with comparable potency | potency as estrogen receptor modulator relative to tamoxifen [2]: 100 fold

NR2F1-mediated reporter activation [6]: ineffective | inhibition of EBP enzymatic activity [8]: clear inhibition
Molecule: COc1ccc(S(=O)(=O)N2CCC(N3CCC(C)CC3)CC2)cc1 [TASIN-1]
MBP+ oligodendrocyte tracking along and wrapping of microfibers [7]: significantly enhanced MBP+ oligodendrocyte tracking along and wrapping of the microfibers | formation of MBP+ oligodendrocytes from OPCs [1]: enhanced formation of MBP^+ oligodendrocytes | agonist activity in NHR reporter assays [5]: no molecule showed significant agonist activity in any assay

NR2F1-mediated reporter activation [6]: ineffective | IC50 [9]: 300 to 700 nM
Molecule: CC(=O)N1CCN(c2ccc(OCC3COC(Cn4ccnc4)(c4ccc(Cl)cc4Cl)O3)cc2)CC1 (stereo not shown) [ketoconazole, Ketoconazole]
MBP+ oligodendrocyte tracking along and wrapping of microfibers [7]: significantly enhanced MBP+ oligodendrocyte tracking along and wrapping of the microfibers | formation of MBP+ oligodendrocytes from OPCs [1]: enhanced formation of MBP^+ oligodendrocytes | agonist activity in NHR reporter assays [5]: no molecule showed significant agonist activity in any assay

IC50 [9]: 300 to 700 nM
Molecule: Clc1ccc(COC(Cn2ccnc2)c2ccc(Cl)cc2Cl)c(Cl)c1 (stereo not shown) [miconazole, Miconazole]
remyelination in mouse models of demyelination (earlier work) [10]: enhances remyelination in mouse models of demyelination | 8,9-unsaturated sterol accumulation in human cortical spheroids [11]: led to 8,9-unsaturated sterol accumulation
